In article PMC12901071 (Scientific Reports, 2026):

Target: T1, human membrane progestin receptor α (hmPRα) (Homo sapiens, UniProt Q86WK9)
T1 sequence (Q86WK9 1-346): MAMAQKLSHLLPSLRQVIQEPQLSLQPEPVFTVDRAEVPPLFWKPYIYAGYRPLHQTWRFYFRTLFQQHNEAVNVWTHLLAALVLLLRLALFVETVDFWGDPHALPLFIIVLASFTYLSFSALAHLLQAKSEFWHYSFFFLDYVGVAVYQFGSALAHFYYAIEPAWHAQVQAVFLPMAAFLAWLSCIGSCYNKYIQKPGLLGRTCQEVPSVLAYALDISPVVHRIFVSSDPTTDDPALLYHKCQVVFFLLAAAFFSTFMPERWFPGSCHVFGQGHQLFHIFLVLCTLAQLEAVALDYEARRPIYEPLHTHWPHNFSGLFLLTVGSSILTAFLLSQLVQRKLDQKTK
Test: GQD-hmPRα fluorescence competition with P4-BSA-FITC
Format: binding

| Structure (SMILES) | IC50 [nM] |
| --- | --- |
| CCCC(O)C(=O)OC(CCC)C(=O)O (centres unmarked) [1-CB 2-HPNA, 1-carboxybutyl 2-hydroxypentanoate] | 1260 |
| CC(=O)[C@H]1CC[C@H]2[C@@H]3CCC4=CC(=O)CC[C@]4(C)[C@H]3CC[C@]12C [progesterone] | 1900 |
